This note sets out measurements from patent publication US9085584B2, “Substituted pyrido[3,2-E][1,2,4]-triazolo[4,3-A]pyrazines for the treatment of central nervous system disorders” (Boehringer Ingelheim International GmbH, priority 2012, dated 2015).

A short description of one data set: Metabolic stability in pooled liver microsomes. Type of data set: in vitro ADME, human. To be noted: human liver microsomes, 1 μM test compound, 37° C. The protocol:
The metabolic stability of the compounds according to the invention has been investigated as follows:
The metabolic degradation of the test compound was assayed at 37° C. with pooled liver microsomes from various species. The final incubation volume of 100 μl per time point contains TRIS buffer pH 7.6 at room temperature (0.1 M), magnesium chloride (5 mM), microsomal protein (1 mg/mL for human and dog, 0.5 mg/mL for other species) and the test compound at a final concentration of 1 μM. Following a short preincubation period at 37° C., the reactions were initiated by addition of betanicotinamide adenine dinucleotide phosphate, reduced form (NADPH, 1 mM), and terminated by transferring an aliquot into solvent after different time points. […] The half-life was determined by the slope of the semi-logarithmic plot of the concentration-time profile.
A general note: Liver microsomes are vesicles of endoplasmic reticulum, rich in cytochrome P450 enzymes.
With `Cc1nc2cccnc2n2c(-c3cc(OC[C@@H](C)O)ccc3Cl)nnc12` [Example 17], the “Half-life - t½” value is 2.17 h.
The same measure, in the same setting: the result for `Cc1nc2ccc(C3CC3)nc2n2c(-c3cc(OC4COCC4O)ccc3Cl)nnc12` (single isomer, unassigned) [Example 58c] reads 2.17 h; that for `CCC(O)c1ccc(Cl)c(-c2nnc3c(C)nc4ccc(C)nc4n23)c1` (stereo not drawn) [Example 62], 2.17 h; that for `Cc1nc2ccc(C3CC3)nc2n2c(-c3cc(C(C)(C)O)ccc3F)nnc12` [Example 76], 2.17 h.
`Cc1ccc2nc(C)c3nnc(-c4cc(C(C)(C)O)ccc4Cl)n3c2n1` [Example 71]: the “Half-life - t½” value was found to be 2.17 h.
On the same count and under the same terms, the result for `Cc1ccc(C2(O)CCOCC2O)cc1-c1nnc2c(C)nc3ccc(C4CC4)nc3n12` (single isomer, unassigned) [Example 104a] reads 2.17 h.
`Cc1nc2ccc(C3CC3)nc2n2c(-c3cc(OCC(C)(C)O)ccc3Cl)nnc12` [Example 45]: the “Half-life - t½” value amounted to 2.17 h.
In the case of `Cc1nc2cccnc2n2c(-c3cc(O)ccc3Cl)nnc12` [Example 1], the “Half-life - t½” value worked out at 2.17 h.
Still for that read-out and setting: the result for `Cc1nc2cccnc2n2c(-c3cc(OC4COCCC4O)ccc3Cl)nnc12` (single isomer, unassigned) [Example 58] reads 2.17 h; that for `Cc1nc2ccc(C3CC3)nc2n2c(-c3cc(OCC(C)(C)O)ccc3F)nnc12` [Example 47], 2.17 h.
On to `Cc1ccc(OCC(C)(C)O)cc1-c1nnc2c(C)nc3ccc(C4CC4)nc3n12` [Example 48], for which the “Half-life - t½” value turned out to be 2.17 h.
The same measure, in the same setting: the result for `Cc1nc2cccnc2n2c(-c3cc(C4(O)CCOC4)ccc3Cl)nnc12` (single isomer, unassigned) [Example 99] reads 2.17 h.
On the same count and under the same terms, the result for `Cc1ccc(OC2COCC2O)cc1-c1nnc2c(C)nc3ccc(C4CC4)nc3n12` (single isomer, unassigned) [Example 57a] reads 2.17 h.
Same read-out and setting: the result for `Cc1ccc2nc(C)c3nnc(-c4cc(C5(O)CCC5)ccc4C)n3c2n1` [Example 102] reads 2.17 h; that for `Cc1nc2cc(C(C)C)cnc2n2c(-c3cc(OCC(C)(C)O)ccc3Cl)nnc12` [Example 54], 2.17 h.
On to `Cc1nc2cccnc2n2c(-c3cc(OCC(C)(C)O)ccc3Cl)nnc12` [Example 44], for which the “Half-life - t½” value came out at 2.17 h.
For `Cc1ccc2nc(C)c3nnc(-c4cc(OCC(C)(C)O)ccc4Cl)n3c2n1` [Example 46], the “Half-life - t½” value was 2.17 h.
Regarding `Cc1nc2cccnc2n2c(-c3cc(OC4CCC(F)(F)CC4)ccc3Cl)nnc12` [Example 21], the “Half-life - t½” value was 2.17 h.
The same measure, in the same setting: to `Cc1ccc(CCC(C)(C)O)cc1-c1nnc2c(C)nc3cccnc3n12` [Example 67] belongs 2.17 h.

Still in this data set, the particulars now being: human, pooled liver microsomes, pH 7.6, human liver microsomes, 1 μM test compound, 37° C.; read-out: Half-life - t½.
In general, half-life refers to the time needed for the level to fall by half in the phase considered. Turning to `Cc1nc2ccc(C(C)C)nc2n2c(-c3cc(C(C)(C)O)ccc3Cl)nnc12` [Example 77], the half-life at 1 μM was 1.5 h.
Same read-out and setting: to `Cc1nc2ccc(C3CC3)nc2n2c(-c3cc(O)ccc3Cl)nnc12` [Example 9] belongs 0.683 h; to `Cc1nc2ccc(C(C)C)nc2n2c(-c3cc(C4(O)CCC4)ccc3Cl)nnc12` [Example 91], 0.467 h.
Take `Cc1nc2ccc(C3CC3)nc2n2c(-c3cc(C4(O)CCOCC4)ccc3Cl)nnc12` [Example 94]: the half-life at 1 μM amounted to 0.633 h.
For the molecule `Cc1ccc(CC(C)(C)O)cc1-c1nnc2c(C)nc3ccc(C4CC4)nc3n12` [Example 81], the half-life at 1 μM turned out to be 0.433 h.
As to `Cc1ccc(CCC(C)(C)O)cc1-c1nnc2c(C)nc3ccc(C4CC4)nc3n12` [Example 68], the half-life at 1 μM worked out at 0.65 h.
Same read-out and setting: the result for `Cc1ccc(OC2COCC2O)cc1-c1nnc2c(C)nc3ccc(C4CC4)nc3n12` (single isomer, unassigned) [Example 57b] reads 1.55 h; that for `Cc1nc2ccc(C(F)(F)F)nc2n2c(-c3cc(O)ccc3Cl)nnc12` [Example 12], 1.05 h.
